Measurements taken from PubChem BioAssay (NCI).
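A five-concentration, 48-hour dose response in 96-well plates underlies each endpoint, interpolated linearly between surrounding concentrations. At the TGI there is no net growth.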

Key:
Assay in all cases: NCI anticancer screen, dose series, 48 h
T-47D breast = tested on: T-47D breast
OVCAR-8 ovarian = tested on: OVCAR-8 ovarian
TK-10 renal = tested on: TK-10 renal
A549 NSCLC = tested on: A549 NSCLC
RPMI-8226 leukemia = tested on: RPMI-8226 leukemia
MCF7 breast = tested on: MCF7 breast
UACC-62 melanoma = tested on: UACC-62 melanoma
SK-MEL-2 melanoma = tested on: SK-MEL-2 melanoma
NCI-H460 lung = tested on: NCI-H460 lung
CCRF-CEM leukemia = tested on: CCRF-CEM leukemia
SNB-19 CNS = tested on: SNB-19 CNS

Compound	TGI (T-47D breast) [µM]	TGI (OVCAR-8 ovarian) [µM]	TGI (TK-10 renal) [µM]	TGI (A549 NSCLC) [µM]	TGI (RPMI-8226 leukemia) [µM]	TGI (MCF7 breast) [µM]	TGI (UACC-62 melanoma) [µM]	TGI (SK-MEL-2 melanoma) [µM]	TGI (NCI-H460 lung) [µM]	TGI (CCRF-CEM leukemia) [µM]	TGI (SNB-19 CNS) [µM]
N#CC1C(=O)Nc2sc(C(=O)c3ccc(Br)cc3)c(N)c2C12CCCCC2 (stereo not drawn)	> 100	> 100	> 100	> 100	> 100	> 100	54.1	37.7	> 100	80.3	> 100
CC1(C)OCC2OC3([C@H](O)CCO)OC(C)(C)OC3C2O1 (stereo partly drawn)	> 100	> 100	–	> 100	> 100	> 100	> 100	> 100	> 100	> 100	> 100
OC(c1cccs1)c1cc2ccccc2s1 (stereo not drawn)	> 10	> 10	> 10	> 10	> 10	> 10	> 10	> 10	> 10	> 10	> 10
COc1ccc(/C=C2\CN(C)CC3=C2OC(N)=C(C#N)C3c2ccc(OC)cc2)cc1 (stereo not drawn)	> 100	> 100	> 100	> 100	> 43.9	> 100	> 100	> 65.5	> 100	30.2	> 100
O=[N+]([O-])c1ccc(Cl)cc1C1ON=C(c2ccccc2)N1C12CC3CC(CC(C3)C1)C2 (stereo not drawn)	> 100	–	> 100	> 100	> 100	> 100	> 100	> 100	> 100	> 100	> 100
OC1C(O)C(O)C(O)C(O)C1O (stereo not drawn)	> 1000	> 1000	> 1000	> 1000	> 1000	> 1000	> 1000	> 1000	> 1000	144	> 1000
Cc1cccc(-c2cc(=O)c3ccc(C)nc3[nH]2)c1	> 100	> 100	> 84.6	> 100	23.2	> 100	> 100	> 100	19.5	> 22.8	> 100
O=c1c2cc(Br)ccc2oc2nc3n(c(=O)c12)CCCS3	> 100	> 100	> 100	> 100	> 100	> 100	> 100	> 100	> 100	> 100	> 100
FC(F)(F)c1ccc2c(c1)nc(Cc1ccccc1)n2C[C@@H]1CCCN2CCCCC12 (stereo partly drawn)	30.4	29.7	31.3	28.8	82.7	28.6	30.7	30.6	31.9	> 54.8	28.6
COC(=O)[C@H]1[C@H](C(=O)OC)[C@@H](C)c2c(ccc3c2[nH]c2ccccc23)[C@@H]1C	> 100	> 100	> 100	> 100	> 100	> 100	> 100	> 100	> 100	> 100	> 100
COc1ccc(-c2cc(-c3ccc(Nc4ccnc5cc(C(F)(F)F)ccc45)cc3)[nH]c(=O)c2C#N)c2ccccc12	> 60.5	> 100	> 90.7	> 100	> 100	> 100	> 100	> 100	> 100	> 56.8	> 54.7
COC1=CC(=O)C(O)=C(C[C@@]2(C)[C@@H]3CCC[C@H](COC(=O)CCCCCNC(=O)OC(C)(C)C)[C@@]3(C)CC[C@@H]2C)C1=O	> 10	> 10	> 10	> 10	> 10	> 10	–	> 10	–	5.29	> 10
N#CCCC(CC#N)N1CCN(CCO)CC1 (stereo not drawn)	> 100	> 100	> 100	> 100	> 100	> 100	> 100	–	> 100	> 100	> 100
CCCn1cnc2c(NN=O)ncnc21	> 100	> 100	> 100	–	> 100	> 100	> 100	–	> 100	–	> 100
Cc1ccc(S(=O)(=O)N2CCSCCSCCN(S(=O)(=O)c3ccc(C)cc3)CCN(S(=O)(=O)c3ccc(C)cc3)CC2)cc1	> 100	> 100	> 100	> 100	> 100	> 100	–	> 100	> 100	> 100	> 100
Oc1ccc2c(c1)OCC(O)(c1ccccc1O)C2 (stereo not drawn)	> 100	> 100	> 100	–	> 100	> 100	> 100	> 100	> 100	> 100	> 100
CC1=C/C(=N/N2C(=O)/C(=C/c3ccc(Cl)cc3)N=C2c2ccccc2)CC(C)(C)C1	> 100	> 100	> 100	> 100	> 100	> 100	> 100	96	> 100	–	> 100
C=CCN1C(=O)/C(=C/c2ccc(C)cc2)N=C1SC/C=C/C	83.3	> 100	> 100	> 100	36.6	> 100	> 100	57.7	> 100	> 100	> 100
COC(=O)C1=NN2c3ccccc3C(=O)OCCC2C1 (stereo not drawn)	> 100	> 100	> 100	> 100	> 100	> 100	> 100	> 100	> 100	> 100	–
Clc1ccc(OCc2nnc3sc(-c4ccc(-c5ccc(Cl)cc5Cl)o4)nn23)c(Cl)c1	54.6	32.1	39.8	46.8	57.2	> 100	> 100	32.1	55.2	68.2	56.6
